Results reported in patent US10774281B2, “Use of a particular carboxylic amino acid in order to limit the formation and/or agglomeration of gas hydrates” (Arkema France, priority 2015, dated 2020).

Legend:
[1] = Bioaccumulation, Log Pow according to OCDE 117 by HPLC; type: physicochemical
Experimental: (§1) According to OCDE test 306 (marine medium), the composition of the invention (B1), comprising a compound of formula (I), has a biodegradability of 70%, i.e. greater than 60%. […] Its Log Pow measured according to OCDE 117 by HPLC is 2.93<3. Its Algal ecotoxicity is 2 mg·L^−1.

[2] = Biodegradability in marine medium, OCDE test 306; conditions: in words
Experimental: as §1

| Substance | Bioaccumulation, in words [1] | Biodegradability classification [2] |
| --- | --- | --- |
| di-tallow-hydrogenodimethylammonium chloride [Noramium® M2SH] | bioaccumulable | not biodegradable |
| dicocoyldimethylammonium chloride [Noramium® M2C] | bioaccumulable | not biodegradable |
